Source: US8048866B2, “Preventive and/or therapeutic agent for calcipenia” (Nippon Beet Sugar MFG., Co., Ltd., priority 2004, dated 2011)

What was measured:
[1] = tested on: Holstein cows; experiment: Effect of supply of DFA III and DFA IV on calcium metabolism, lactation and urine excretion amount of cows; assay type: in vivo, cow; conditions: supplied feeds and 100 g of DFA; for Excretion amount of calcium in urine / Milk fat rate / Milk protein rate / Milk yield: main period of 5 days
Description: The effect of supply of DFA III and DFA IV on calcium metabolism, lactation and a urine excretion amount of cows was examined.
Nine Holstein cows (2 to 4 calvings, 90 to 120 days after calving, average body weight 642 kg, average milk yield 36 kg) were divided into three groups, and subjected to a test by 3×3 Latin squares with one period of 15 days (preliminary period of 10 days and main period of 5 days).
Regarding supplied feeds for a day, a grass silage, a cone silage and a beat pulp were used in fixed amounts of 3, 4 and 2 kg in terms of a dry weight respectively, and an amount of a concentrate (crude protein content 18% TDN content 74%) was ⅓ the milk yield. Further, a mineral agent and a vitamin agent were not supplied, and an insufficient feed for each cow was supplemented by supplying hay. These supplied feeds have the same contents in all cows, and they were caused to freely drink water.
The foregoing supply only was applied to a control group Supplied feeds and 100 g of DFA III were applied to a DFA III group, and supplied feeds and 100 g of DFA IV were applied to a DFA IV group.
The cows were accommodated in a metabolism test laboratory, and milking was conducted twice at 5 o'clock and 17 o'clock. The milk yield was measured and milk composition were analyzed for five days as the main period. The total amount of feces and urine was recovered for five days as the main period, and the fixed amounts thereof were mixed and subjected to analysis.
As is apparent from the results, no great difference was found among the groups in the dry matter intake and the calcium intake. The milk yield was increased in the DFA III and DFA IV groups by approximately 1 kg in comparison to the control group. No difference was found either among the groups in the milk fat rate and the milk protein rate. […] In the table, TDN indicates a total amount of a digestible nutrient.

[2] = tested on: Holstein calving cows; experiment: Degree of udder edema by palpation after oral administration of DFA III and DFA IV; assay type: in vivo, cow; conditions: time 0, before administration; heavy 4, medium 3, light 2, normal 1
Method: (§1) As test cows, 15 Holstein calving cows with two or more calvings were used, and divided into three groups each consisting of 5 cows. Immediately after calving, the blood was sampled from the tail root. 300 ml of warm water was orally administered to the control group. 100 g of DFA III and 100 g of DFA IV each dissolved in 250 ml of warm water were orally administered to the DFA III group and the DFA IV group respectively. The blood was sampled from the tail root after 6 hours and 60 hours from the blood sampling immediately after calving. The degree of the udder edema was also confirmed by palpation.
(§2) The blood was centrifuged at 3,000 rpm for 10 minutes, and the serum portion was stored at −30° C. until analysis. Calcium was analyzed by the OCPC method. The degree of udder was examined by palpation. A heavy degree was defined as 4, a medium degree as 3, a light degree as 2 and a normal degree as 1 respectively.

[3] = tested on: mice; experiment: Acute toxicity test for 10 days using mice; assay type: in vivo; conditions: oral administration, 1,000 mg/kg
Description: The dose of DFA III is not particularly limited to the foregoing range. When it is ingested over a long period of time for preservation of the health or for maintenance of the health, the dose may be lower than the foregoing range.

[4] = tested on: cows with 2 or more calvings; experiment: Influence of DFA III supply at a dry period on calcium concentration in blood of cows after calving; assay type: in vivo, cow
Method: The influence of the DFA III supply at a dry period on the calcium concentration in blood of cows after calving was tested in vivo using actual cows.
It has been so far considered that DFA III is administered to cows after caving which is effective for improving the calcium concentration in blood. On the other hand, the calcium concentration in blood is already decreased immediately after calving. As the decree of decrease is greater, vitality and appetite are weak and tend to be slowly recovered. Accordingly, DFA III was supplied at a dry period, and the influence of DFA III on the calcium concentration in blood immediately after calving was examined.
DFA III supply; DFA III (50 g/day) was supplied at a dry period from 3 weeks before an expected date of calving through calving.
Without DFA III supply; DFA III was not supplied before calving.
90 g of DFA III was, each time, supplied to both of the DFA III supply group and the group without DFA supply 0 hour and 6 hours after calving. At a dry period, 4 kg/day of a feed obtained by adding 12,000 IU of vitamin D to 4 kg of a feed was supplied to both the areas.
Cows with 2 or more calvings were used.
As DFA III supply cows, 10 cows which experienced calving after Apr. 30, 2004 were subjected to a test. As cows without DFA III supply, 38 cows which experienced calving from Jul. 14, 2002 through Apr. 18, 2004 and to which DFA III was not supplied at a dry period were used. Since the test started on Jul. 14, 2002, the test cows include 15 cows which experienced calving twice (8 DFA III supply cows and 7 cows without DFA III supply) during this period.
In dry cows, milking was stopped 2 months before an expected date of calving. Then, a concentrate (crude protein content 18%, TDN 72%, Ca 0.9% P 0.5%) was supplied in an amount of 2 kg/day until 3 weeks before an expected date of calving. A concentrate (crude protein content 20%, TDN 75%, Ca 0.2%, P 0.5%) was supplied in an amount of 4 kg/day from 3 weeks before an expected date of calving through calving. As another feed, the cows were caused to freely take hay (crude protein content from 6 to 8%, TDN from 45 to 55%, Ca from 0.2 to 0.3%, P 0.2%) during the entire dry period. A mixture obtained by adding 50 g of DFA III to 4 kg of the concentrate given 3 weeks before an expected date of calving was supplied to the DFA III supply cows. As the feeds supplied after calving, the cows were caused to freely take 20 kg/day of TMR containing a grass silage a corn silage and a concentrate (crude feed rate 47.8%), 4 kg of a concentrate (crude protein content 18%, TDN 72%, Ca 0.9%, P 0.5%) and hay.
In all cows, the blood was sampled from the tail root immediately after calving. Further, the blood sampling was performed from the same tail root after 6 hours, 24 hours and 72 hours from the blood sampling immediately after confinement (0 hour). In 0 hour and 6 hours for blood sampling, 90 g of DFA III, 100 g of calcium carbonate and 10,000 IU of vitamin D dissolved in warm water were orally administered each time.
The blood was centrifuged at 3,000 rpm for 10 minutes, and the serum portion was stored at −30° C. until analysis. The calcium concentration was measured by the OCPC method.

[5] = tested on: Holstein calving cows; experiment: Influence of DFA III and DFA IV on calcium concentration in blood in calving of cows (OCPC method); assay type: in vivo, cow; conditions: for Increase of calcium concentration in blood from immediately after calving: in 6 hours, 100 g orally
Method: The influence of DFA III and DFA IV on the calcium concentration in blood in calving of cows was examined.
as §1
Regarding the feeds supplied after calving, the cows were caused to freely take 20 kg/day of TMR containing a grass silage, a corn silage and a concentrate (hereinafter referred to as a mixed feed: forage rate 47.8%), 4 kg of a concentrate and hay. Conditions of calculating the requirement are as follow: day after calving—3, 2 calvings, body weight—612 kg, milk yield—20 kg, milk fat rate—4.0%, and milk protein rate—3.2%. NEl indicates a net energy of lactation, and efNDF indicates an effective neutral detergent insoluble fiber.
as §2

[6] = tested on: Holstein calving cows; experiment: Effect of DFA III and calcium and vitamin D on calcium concentration in blood at the time of calving of cows; assay type: in vivo, cow
Method: The effect of DFA III and calcium and vitamin D on the calcium concentration in blood at the time of calving of cows was examined.
As test cows, 15 Holstein calving cows with 2 or more calvings were used, and divided into three groups each consisting of 5 cows. Immediately after calving, the blood was sampled from the tall root. 100 g of DFA III dissolved in 250 ml of warm water was orally administered to the DFA III group. DFA III and calcium carbonate in amounts of 100 g each which were dissolved in 200 ml of warm water were orally administered to the DFA III+Ca group. DFA III and calcium carbonate in amounts of 100 a each and 10,000 IU of vitamin D which were dissolved in 200 ml of warm water were orally administered to the DFA III+Ca+VD group. The blood was sampled from the tail root after 6, 24 and 70 hours from the blood sampling immediately after calving.
The supply of the feeds and the analyses of the calcium concentration in blood were conducted in the same manner as in Example 3.

[7] = tested on: rumen microorganisms; experiment: Degradability of DFA III and DFA IV in the rumen (incubation with rumen liquid inoculum); assay type: in vitro ADME, Holstein steer and cow; conditions: 400 mg/dl in culture solution, 39° C., 0 to 24 hours
Description: In ruminants, for DFA III and DFA IV to accelerate calcium absorption, they have to reach intestines by avoiding degradation thereof in the rumen with microorganisms. Accordingly, degradability of DFA III and DFA IV in the rumen was examined.
A rumen liquid was collected from each of a rumen cannula-fitted Holstein steer to which 4 kg of a concentrate was supplied in consideration of controlling nutrition of a dry cow and which was caused to freely take hay and a cow in which a milk yield was 30 kg and a rate of a concentrate in a supplied feed was 55%. The liquid was filtered through a four-fold gauze to form an inoculum.
As a buffer, a 0.25 M phosphate buffer (KH2PO4 6.8045 g+Na2HPO4.12H2O 26.8605 g/500 ml, pH 7.0) was used, and 1 g of DFA III or DFA IV per 100 ml of this buffer was added.
30 ml of the inoculum and 20 ml of the buffer were added to a 200-ml conical flask. […] In 0, 1, 2, 4, 8, 12 and 24 hours of the culturing, the culture solution was collected from the flask, and analyzed.
The culture solution in the flask was stirred. After 20 ml of the culture solution was collected, 0.1 ml of sulfosalicylic acid (20% solution was added for deproteinization. After centrifugation by 8,000 rotations for 10 minutes, the solution was filtered with a filter paper of 0.45 μm, and DFA III and DFA IV were analyzed by liquid chromatography. […]

[8] = 6 hours after first blood sampling, 100 g orally immediately after calving
[9] = time 0: blood sampling immediately after calving, before oral administration of 100 g

SMILES	Increase of milk yield in comparison to the control group [1]	Excretion amount of calcium in urine [1] [g/day]	Milk fat rate [1] [%]	Milk protein rate [1] [%]	Milk yield [1] [kg/day]	Degree of udder edema [2]	Calcium concentration in blood [5, 8] [mg/dL]	Increase of calcium concentration in blood from immediately after calving [5]	Calcium concentration in blood [5, 9] [mg/dL]	further results
OC[C@H]1O[C@@]2(CO[C@]3(CO)O[C@H](CO)[C@@H](O)[C@@H]3O2)[C@@H](O)[C@@H]1O [DFA III, di-D-fructfuranose-1,2;2,3′ dianhydride]	approximately 1 kg	4.2	3.86	3.15	35.6	3.3	8.3	approximately 1 mg/dl	7.3	Death in acute toxicity test [3]: no death example was observed; Calcium concentration in blood immediately after calving according to the parity ([4]; 10 DFA III supply cows, DFA III at dry period): not decreased by increasing the parity; Change in calcium concentration in blood after calving (0 to 72 hours) ([4]; Yes-Present calving, 8 cows, DFA III at dry period): shifted at a higher level than in the previous calving; Time for calcium concentration in blood to reach the normal value (9 to 11 mg/dl) ([4]; after calving, DFA III supplied at a dry period, 90 g DFA III, calcium carbonate and vitamin D at 0 and 6 hours): approximately 6 hours; Increase of calcium concentration in blood immediately after calving in comparison to the previous calving ([4]; present calving with DFA III 50 g/day at dry period vs previous calving without): 1.0 mg/dL; Calcium concentration in blood immediately after calving (average) ([4]; present calving, DFA III 50 g/day at a dry period from 3 weeks before expected date of calving): 8.1 mg/dL; Calcium concentration in blood immediately after calving, individual cows ([4]; present calving, DFA III supply at dry period): ≥ 7 mg/dL; Calcium concentration in blood ([5]; 60 hours after first blood sampling, 100 g orally immediately after calving): 8.0 mg/dL; Calcium concentration in blood ([6]; 6 hours after first blood sampling, oral administration immediately after calving): 7.9 mg/dL; Calcium concentration in blood ([6]; 70 hours after first blood sampling, oral administration immediately after calving): 8.5 mg/dL; Increase of calcium concentration in blood in comparison to that immediately after calving ([6]; in 6 hours): 1.2 mg/dL; Calcium concentration in blood ([6]; time 0: immediately after calving, before oral administration): 6.7 mg/dL
OCC12OCC3OC(CO)(OCC(O1)C(O)C2O)C(O)C3O [DFA IV, di-D-fructfuranose-2,6:6.2′ dianhydride]	approximately 1 kg	4.0	3.92	3.11	35.2	3.1	8.0	approximately 1 mg/dl	7.1	Degradation in rumen culture solution ([7]; any of the inoculums): not degraded; Amount recovered in each incubation time ([7]; liquid chromatography): approximately the total amounts thereof were recovered
